From patent EP2975030B1, “DIHYDROPYRIDAZINE-3,5-DIONE DERIVATIVE” (Chugai Seiyaku Kabushiki Kaisha, priority 2013, dated 2014) come the findings set out here.

The experiment deals with rat small-intestinal brush border membrane vesicles. The experiment is described as follows: Inhibitory effect on 33PO4 uptake into rat small-intestinal brush border membrane vesicles (rapid filtration method). Format: biochemical, Wistar female rat. Conditions: 1 µM test compound; 33PO4 uptake into rat small-intestinal BBMVs, 60 seconds. In short, it runs like this:
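Uptake was terminated by ice-cold 110 mM NaCl, 1 mM KH2PO4, 10 mM HEPES (pH 7.5) buffer and immediate suction filtration, then washing. Using rat small-intestinal BBMVs, retained 33PO4 was quantified by liquid scintillation counting as transport activity.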

Turning to `CC(C)[C@H]1C(O)=C(C(=O)Nc2ccc(C(F)(F)F)cc2-c2ccc(C(F)(F)F)nc2)C(=O)N(Cc2cccc(F)c2F)N1C` [Example 253], the “Rate of uptake inhibition (%) (1 µM)” value was determined as 40%.

In the case of `C[C@]12CCCN1N(Cc1cccc(Cl)c1F)C(=O)C(C(=O)Nc1ccc(C(F)(F)F)cc1-c1cc(C(F)(F)F)ncn1)=C2O` [Example 209], the “Rate of uptake inhibition (%) (1 µM)” value is listed as 76%.

Consider `CN(C[C@H](O)[C@@H](O)[C@H](O)[C@H](O)CO)C(=O)CCOCCOCCOc1ccc(CN2C(=O)C(C(=O)Nc3ccc(C(F)(F)F)cc3-c3cc(C(F)(F)F)ncn3)=C(O)C3(CCCC3)N2C)c(F)c1F` [Example 422], for which the “Rate of uptake inhibition (%) (1 µM)” value amounted to 29%.

Regarding `C[C@]12CCCN1N(Cc1cc(F)cc(F)c1)C(=O)C(C(=O)Nc1ccc(C(F)(F)F)cc1-c1cc(C(F)(F)F)ncn1)=C2O` [Example 213], the “Rate of uptake inhibition (%) (1 µM)” value was 79%.

On to `COc1cccc(-c2cc(C(F)(F)F)ccc2NC(=O)C2=C(O)[C@@]3(C)CCCN3N(Cc3ccc(C#CCOCCO)c(F)c3F)C2=O)c1OC` [Example 137], for which the “Rate of uptake inhibition (%) (1 µM)” value is 92%.

Take `C[C@]12CCCN1N(Cc1cccc(F)c1F)C(=O)C(C(=O)Nc1ccc(C(F)(F)F)cc1-c1cnc(Cl)nc1)=C2O` [Example 67]: the “Rate of uptake inhibition (%) (1 µM)” value is given as 91%.

Take “1-[(3-Fluorophenyl)methyl]-4-hydroxy-4a-methyl-N-[5-methyl-2-(trifluoromethyl)furan-3-yl]-2-oxo-5,6,7,8-tetrahydropyrido[1,2-b]pyridazine-3-carboxamide [Example 18]”: the “Rate of uptake inhibition (%) (1 µM)” value worked out at 12%.

On to `Cc1c(-c2cc(C(F)(F)F)ccc2NC(=O)C2=C(O)C3(CCCC3)N(C)N(Cc3ccc(OCCN4CCOCC4)c(F)c3F)C2=O)ncnc1C(F)(F)F` [Example 290], for which the “Rate of uptake inhibition (%) (1 µM)” value was found to be 59%.

Regarding `CN1N(Cc2ccc(OCCN3CCN(CCOCCO)CC3)c(F)c2F)C(=O)C(C(=O)Nc2ccc(C(F)(F)F)cc2-c2cc(C(F)(F)F)ncn2)=C(O)C12CCCC2` [Example 378], the “Rate of uptake inhibition (%) (1 µM)” value came to 35%.

Consider `C[C@]12CCCN1N(Cc1ccc(Br)cc1F)C(=O)C(C(=O)Nc1cc(F)c(Br)c(F)c1)=C2O` [Example 166, (4aR)-N-(4-Bromo-3,5-difluorophenyl)-1-[(4-bromo-2-fluorophenyl)methyl]-4-hydroxy-4a-methyl-2-oxo-6,7-dihydro-5H-pyrrolo[1,2-b]pyridazine-3-carboxamide], for which the “Rate of uptake inhibition (%) (1 µM)” value is recorded as 73%.

For the compound `CN1N(Cc2ccc(NCCCN3CCOCC3)c(F)c2F)C(=O)C(C(=O)Nc2ccc(C(F)(F)F)cc2-c2cc(C(F)(F)F)ncn2)=C(O)C12CCCC2` [Example 446], the “Rate of uptake inhibition (%) (1 µM)” value is on record as 31%.

`CN1[C@@H](C(C)(C)C)C(O)=C(C(=O)Nc2ccc(Cl)cc2-c2cc(C(F)(F)F)ncn2)C(=O)N1Cc1cccc(F)c1F` [Example 237]: the “Rate of uptake inhibition (%) (1 µM)” value came out at 51%.

Take `C[C@@]12CCCN1N(Cc1ccc(OCCN3CCOCC3)c(F)c1F)C(=O)C(C(=O)Nc1ccc(Cl)cc1-c1cc(C(F)(F)F)ncn1)=C2O.Cl` [Example 107]: the “Rate of uptake inhibition (%) (1 µM)” value amounted to 54%.

Consider `CCN(CCN(C)CCOC)c1ccc(CN2C(=O)C(C(=O)Nc3ccc(C(F)(F)F)cc3-c3cc(C(F)(F)F)ncn3)=C(O)C3(CCCC3)N2C)c(F)c1F` [Example 443], for which the “Rate of uptake inhibition (%) (1 µM)” value was 28%.

As for `C[C@]12CCCN1N(Cc1cccc(F)c1F)C(=O)C(C(=O)Nc1ccc(C(F)(F)F)cc1-c1cnc(N3CC4(COC4)C3)c(C#N)c1)=C2O` [Example 111, (4aR)-N-[2-[5-Cyano-6-(2-oxa-6-azaspiro[3.3]heptan-6-yl)pyridin-3-yl]-4-(trifluoromethyl)phenyl]-1-[(2,3-difluorophenyl)methyl]-4-hydroxy-4a-methyl-2-oxo-6,7-dihydro-5H-pvrrolo[1,2-b]pyridazine-3-carboxamide], the “Rate of uptake inhibition (%) (1 µM)” value was found to be 56%.

In the case of `CSc1ccc(-c2cc(C(F)(F)F)ccc2NC(=O)C2=C(O)C3(CCCC3)N(C)N(Cc3ccc(OCCN4CCOCC4)c(F)c3F)C2=O)cn1` [Example 289], the “Rate of uptake inhibition (%) (1 µM)” value was 55%.

As for `C[C@]12CCCN1N(Cc1cc(F)cc(F)c1)C(=O)C(C(=O)Nc1cc(F)c(Br)c(F)c1)=C2O` [Example 190], the “Rate of uptake inhibition (%) (1 µM)” value was 84%.

On to `Cc1c(Cl)ncnc1-c1cc(C(F)(F)F)ccc1NC(=O)C1=C(O)[C@H](C(C)(C)C)N(C)N(Cc2ccc(OCCN3CCOCC3)c(F)c2F)C1=O` [Example 276], for which the “Rate of uptake inhibition (%) (1 µM)” value is on record as 68%.

With `C[C@]12CCCN1N(Cc1cccc(F)c1F)C(=O)C(C(=O)Nc1ccc(C(F)(F)F)cc1-c1cnc(Br)cn1)=C2O` [Example 73], the “Rate of uptake inhibition (%) (1 µM)” value was 74%.

In the case of `CC(C)[C@H]1C(O)=C(C(=O)Nc2cc(F)c(Br)c(F)c2)C(=O)N(Cc2cccc(F)c2F)N1C` [Example 254], the “Rate of uptake inhibition (%) (1 µM)” value stood at 58%.

As to `C[C@]12CCCN1N(Cc1ccc(C#CCCCCC(=O)O)c(F)c1F)C(=O)C(C(=O)Nc1ccc(C(F)(F)F)cc1-c1cncc(C(F)(F)F)c1)=C2O` [Example 119, 7-[4-[[(4aR)4-Hydroxy-4a-methyl-2-oxo-3-[[4-(trifluoromethyl)-2-[5-(trifluoromethyl)pyridin-3-yl]phenyl]carbamoyl]-6,7-dihydro-5H-pyrrolo[1,2-b]pyridazin-1-yl]methyl)-2,3-difluorophenyl]hept-6-ynoate], the “Rate of uptake inhibition (%) (1 µM)” value is given as 71%.

For the compound `C[C@]12CCCN1N(Cc1c(F)cc(C#CCCCCCOC[C@H](O)[C@@H](O)CO)cc1F)C(=O)C(C(=O)Nc1ccc(C(F)(F)F)cc1-c1ccc(C(F)(F)F)nc1)=C2O` [Example 124], the “Rate of uptake inhibition (%) (1 µM)” value is reported as 81%.

In the case of `CN1N(Cc2ccc(OCCN3CCN(CCO)CC3)c(F)c2F)C(=O)C(C(=O)Nc2ccc(C(F)(F)F)cc2-c2cc(C(F)(F)F)ncn2)=C(O)C12CCCC2` [Example 376], the “Rate of uptake inhibition (%) (1 µM)” value is reported as 33%.

Consider `CN1N(Cc2ccc(OCCCOCCCO)c(F)c2F)C(=O)C(C(=O)Nc2ccc(C(F)(F)F)cc2-c2cc(C(F)(F)F)ncn2)=C(O)C12CCCC2` [Example 398], for which the “Rate of uptake inhibition (%) (1 µM)” value was found to be 34%.

On to `CN1N(Cc2ccc(OCCCCCOC[C@H](O)CO)c(F)c2F)C(=O)C(C(=O)Nc2ccc(C(F)(F)F)cc2-c2ccc(C(F)(F)F)nc2)=C(O)C12CCCC2` [Example 388], for which the “Rate of uptake inhibition (%) (1 µM)” value is on record as 15%.

With `C[C@]12CCCN1N(Cc1cccc(Cl)c1)C(=O)C(C(=O)Nc1cc(F)c(Br)c(F)c1)=C2O` [Example 221], the “Rate of uptake inhibition (%) (1 µM)” value was 82%.

Regarding `C[C@]12CCCN1N(Cc1ccc(F)cc1F)C(=O)C(C(=O)Nc1ccc(C(F)(F)F)cc1-c1ccc(C(F)(F)F)nc1)=C2O` [Example 173], the “Rate of uptake inhibition (%) (1 µM)” value worked out at 73%.

Consider `Cc1ccccc1CN1C(=O)C(C(=O)Nc2ccc(C(F)(F)F)cc2-c2cc(C(F)(F)F)ncn2)=C(O)[C@@]2(C)CCCN12` [Example 185], for which the “Rate of uptake inhibition (%) (1 µM)” value was 83%.

As for `C[C@]12CCCN1N(Cc1ccc(F)c(F)c1)C(=O)C(C(=O)Nc1ccc(C(F)(F)F)cc1-c1ccc(C(F)(F)F)nc1)=C2O` [Example 170], the “Rate of uptake inhibition (%) (1 µM)” value is listed as 73%.

On to `CN1N(Cc2ccc(OCCOCCOCCOCCC(=O)NCC(O)CO)c(F)c2F)C(=O)C(C(=O)Nc2ccc(C(F)(F)F)cc2-c2cc(C(F)(F)F)ncn2)=C(O)C12CCCC2` (stereo not drawn) [Example 424], for which the “Rate of uptake inhibition (%) (1 µM)” value is 17%.

As for `COC(=O)COc1ccc(CN2C(=O)C(C(=O)Nc3ccc(C(F)(F)F)cc3-c3ccc(C(F)(F)F)nc3)=C(O)[C@@]3(C)CCCN23)c(F)c1F` [Example 150, Methyl 2-[4-[[(4aR)-4-Hydroxy-4a-methyl-2-oxo-3-[[4-(trifluoromethyl)-2-[6-(trifluoromethyl)pyridin-3-yl]phenyl]carbamoyl]-6,7-dihydro-5H-pyrrolo[1,2-b]pyridazin-1-yl]methyl]-2,3-difluorophenoxy] acetate], the “Rate of uptake inhibition (%) (1 µM)” value amounted to 87%.

On to `CN(C)C(=O)N1CCN(CCOc2ccc(CN3C(=O)C(C(=O)Nc4ccc(C(F)(F)F)cc4-c4cc(C(F)(F)F)ncn4)=C(O)C4(CCC4)N3C)c(F)c2F)CC1` [Example 364], for which the “Rate of uptake inhibition (%) (1 µM)” value was determined as 36%.

Turning to `CN1N(Cc2ccc(OC(C)(C)CN3CCOCC3)c(F)c2F)C(=O)C(C(=O)Nc2ccc(C(F)(F)F)cc2-c2cc(C(F)(F)F)ncn2)=C(O)C12CCC2` [Example 407, 6-[[2,3-Difluoro-4-(2-methyl-1-morpholin-4-ylpropan-2-yl)oxyphenyl]methyl]-9-hydroxy-5-methyl-7-oxo-N-[4-(trifluoromethyl)-2-[6-(trifluoromethyl)pyrimidin-4-yl]phenyl]-5,6-diazaspiro[3.5]non-8-ene-8-carboxamide], the “Rate of uptake inhibition (%) (1 µM)” value was found to be 30%.

For `CSc1ccc(-c2cc(C(F)(F)F)ccc2NC(=O)C2=C(O)[C@@]3(C)CCCN3N(Cc3ccc(OCCCCOC[C@H](O)CO)c(F)c3F)C2=O)cn1` [Example 120], the “Rate of uptake inhibition (%) (1 µM)” value is listed as 66%.

On to `C[C@]12CCCN1N(Cc1cc(Cl)ccc1F)C(=O)C(C(=O)Nc1ccc(C(F)(F)F)cc1-c1cc(C(F)(F)F)ncn1)=C2O` [Example 211], for which the “Rate of uptake inhibition (%) (1 µM)” value was 72%.

For `COCCOc1cc(NC(=O)C2=C(O)C3(CCCC3)N(C)N(Cc3ccc(OCCN(C)CCOC)c(F)c3F)C2=O)c(-c2ncnc(C(F)(F)F)c2C)cc1C(F)(F)F` [Example 439, 7-[[2,3-Difluoro-4-[2-[2-methoxyethyl(methyl)amino]ethoxy]phenyl]methyl]-10-hydroxy-N-[5-(2-methoxyethoxy)-2-[5-methyl-6-(trifluoromethyl)pyrimidin-4-yl]-4-(trifluoromethyl)phenyl]-6-methyl-8-oxo-6,7-diazaspiro[4.5]dec-9-ene-9-carboxamide], the “Rate of uptake inhibition (%) (1 µM)” value is recorded as 35%.
